From ChEMBL document CHEMBL1142492 (J Med Chem, 2008)

Key:
[1] = Volume of distribution in Sprague-Dawley rat at 1 mg/kg, iv; details: in vivo
[2] = Half life in Sprague-Dawley rat at 1 mg/kg, iv; details: in vivo
[3] = molecular target: CYP2C9 (Homo sapiens, UniProt P11712); test: Inhibition of human CYP2C9 at 10 uM; type: ADME
[4] = molecular target: CYP3A4 (Homo sapiens, UniProt P08684); test: Inhibition of human CYP3A4 at 10 uM; type: ADME
[5] = Clearance in Sprague-Dawley rat at 1 mg/kg, iv; details: in vivo
[6] = in vivo; details: Sprague-Dawley, rat, plasma, iv, 1 mg/kg
[7] = molecular target: CYP2D6 (Homo sapiens, UniProt P10635); test: Inhibition of human CYP2D6 at 10 uM; type: ADME
[8] = molecular target: T1, CYP1A2 (Homo sapiens, UniProt P05177); test: Inhibition of human CYP1A2 at 10 uM; type: ADME
T1 sequence (P05177 whole entry): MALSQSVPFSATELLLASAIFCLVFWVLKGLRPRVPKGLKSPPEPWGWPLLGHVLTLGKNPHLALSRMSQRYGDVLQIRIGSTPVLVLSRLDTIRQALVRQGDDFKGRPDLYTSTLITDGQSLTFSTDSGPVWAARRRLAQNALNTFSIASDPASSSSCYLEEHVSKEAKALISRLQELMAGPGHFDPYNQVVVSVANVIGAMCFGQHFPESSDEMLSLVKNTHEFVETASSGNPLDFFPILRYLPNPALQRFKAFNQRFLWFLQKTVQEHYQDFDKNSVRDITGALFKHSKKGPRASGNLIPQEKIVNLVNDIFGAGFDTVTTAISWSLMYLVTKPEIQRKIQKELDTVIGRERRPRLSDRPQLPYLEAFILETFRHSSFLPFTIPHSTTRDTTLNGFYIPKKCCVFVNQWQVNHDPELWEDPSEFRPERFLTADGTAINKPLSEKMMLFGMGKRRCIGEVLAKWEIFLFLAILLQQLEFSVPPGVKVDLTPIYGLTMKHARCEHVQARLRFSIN

[9] = molecular target: Rho-associated protein kinase 2 (Homo sapiens, UniProt O75116); test: Inhibition of ROCK2
[10] = Inhibition of myosin light chain bisphosphorylation in rat A7r5 cells after 1 hr
[11] = molecular target: RAC-alpha serine/threonine-protein kinase (Homo sapiens, UniProt P31749); test: Inhibition of AKT1 after 55 mins
[12] = in vivo; details: Sprague-Dawley, rat, po, 2 mg/kg

Sequence of CYP2C9 (P11712 whole entry): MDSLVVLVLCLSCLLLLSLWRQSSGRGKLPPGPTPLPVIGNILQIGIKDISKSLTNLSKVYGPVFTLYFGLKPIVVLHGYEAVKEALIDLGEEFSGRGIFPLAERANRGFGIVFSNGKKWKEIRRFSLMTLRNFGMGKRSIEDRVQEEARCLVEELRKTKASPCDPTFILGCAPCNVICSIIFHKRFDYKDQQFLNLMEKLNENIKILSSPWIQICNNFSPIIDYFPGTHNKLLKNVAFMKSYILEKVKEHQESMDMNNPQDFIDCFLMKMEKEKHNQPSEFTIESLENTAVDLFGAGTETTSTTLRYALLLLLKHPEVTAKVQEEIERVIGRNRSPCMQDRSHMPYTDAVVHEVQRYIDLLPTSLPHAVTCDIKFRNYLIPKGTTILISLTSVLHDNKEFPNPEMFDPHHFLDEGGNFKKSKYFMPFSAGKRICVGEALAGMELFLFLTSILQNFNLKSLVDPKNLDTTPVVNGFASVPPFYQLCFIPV
Sequence of CYP2D6 (P10635 whole entry): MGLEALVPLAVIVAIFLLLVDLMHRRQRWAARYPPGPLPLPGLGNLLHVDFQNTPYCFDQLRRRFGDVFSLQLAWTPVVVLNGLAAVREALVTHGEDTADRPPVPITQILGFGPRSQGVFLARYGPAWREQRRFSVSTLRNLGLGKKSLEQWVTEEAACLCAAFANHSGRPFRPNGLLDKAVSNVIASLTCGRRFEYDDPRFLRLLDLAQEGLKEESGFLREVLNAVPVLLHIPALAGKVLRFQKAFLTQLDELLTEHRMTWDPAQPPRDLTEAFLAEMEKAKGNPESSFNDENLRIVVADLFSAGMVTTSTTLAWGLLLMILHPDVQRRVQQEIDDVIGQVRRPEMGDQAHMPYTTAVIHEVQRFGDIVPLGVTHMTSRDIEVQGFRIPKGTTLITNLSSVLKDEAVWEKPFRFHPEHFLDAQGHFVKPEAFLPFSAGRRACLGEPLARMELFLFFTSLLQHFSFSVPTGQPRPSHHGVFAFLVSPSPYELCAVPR
Sequence of CYP3A4 (P08684 whole entry): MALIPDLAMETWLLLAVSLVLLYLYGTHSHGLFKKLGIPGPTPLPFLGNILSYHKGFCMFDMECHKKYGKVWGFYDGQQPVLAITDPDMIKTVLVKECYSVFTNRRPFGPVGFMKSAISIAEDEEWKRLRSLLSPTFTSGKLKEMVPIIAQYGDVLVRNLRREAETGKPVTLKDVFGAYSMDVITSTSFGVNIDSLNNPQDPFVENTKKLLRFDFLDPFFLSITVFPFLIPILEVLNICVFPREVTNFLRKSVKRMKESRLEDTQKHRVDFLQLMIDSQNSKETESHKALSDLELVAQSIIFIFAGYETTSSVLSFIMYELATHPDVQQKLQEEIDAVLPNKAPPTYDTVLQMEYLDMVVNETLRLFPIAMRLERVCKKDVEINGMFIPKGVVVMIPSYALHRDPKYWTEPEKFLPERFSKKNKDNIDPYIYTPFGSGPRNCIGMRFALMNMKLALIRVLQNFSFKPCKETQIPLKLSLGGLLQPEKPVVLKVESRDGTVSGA
Sequence of Rho-associated protein kinase 2 (O75116 whole entry): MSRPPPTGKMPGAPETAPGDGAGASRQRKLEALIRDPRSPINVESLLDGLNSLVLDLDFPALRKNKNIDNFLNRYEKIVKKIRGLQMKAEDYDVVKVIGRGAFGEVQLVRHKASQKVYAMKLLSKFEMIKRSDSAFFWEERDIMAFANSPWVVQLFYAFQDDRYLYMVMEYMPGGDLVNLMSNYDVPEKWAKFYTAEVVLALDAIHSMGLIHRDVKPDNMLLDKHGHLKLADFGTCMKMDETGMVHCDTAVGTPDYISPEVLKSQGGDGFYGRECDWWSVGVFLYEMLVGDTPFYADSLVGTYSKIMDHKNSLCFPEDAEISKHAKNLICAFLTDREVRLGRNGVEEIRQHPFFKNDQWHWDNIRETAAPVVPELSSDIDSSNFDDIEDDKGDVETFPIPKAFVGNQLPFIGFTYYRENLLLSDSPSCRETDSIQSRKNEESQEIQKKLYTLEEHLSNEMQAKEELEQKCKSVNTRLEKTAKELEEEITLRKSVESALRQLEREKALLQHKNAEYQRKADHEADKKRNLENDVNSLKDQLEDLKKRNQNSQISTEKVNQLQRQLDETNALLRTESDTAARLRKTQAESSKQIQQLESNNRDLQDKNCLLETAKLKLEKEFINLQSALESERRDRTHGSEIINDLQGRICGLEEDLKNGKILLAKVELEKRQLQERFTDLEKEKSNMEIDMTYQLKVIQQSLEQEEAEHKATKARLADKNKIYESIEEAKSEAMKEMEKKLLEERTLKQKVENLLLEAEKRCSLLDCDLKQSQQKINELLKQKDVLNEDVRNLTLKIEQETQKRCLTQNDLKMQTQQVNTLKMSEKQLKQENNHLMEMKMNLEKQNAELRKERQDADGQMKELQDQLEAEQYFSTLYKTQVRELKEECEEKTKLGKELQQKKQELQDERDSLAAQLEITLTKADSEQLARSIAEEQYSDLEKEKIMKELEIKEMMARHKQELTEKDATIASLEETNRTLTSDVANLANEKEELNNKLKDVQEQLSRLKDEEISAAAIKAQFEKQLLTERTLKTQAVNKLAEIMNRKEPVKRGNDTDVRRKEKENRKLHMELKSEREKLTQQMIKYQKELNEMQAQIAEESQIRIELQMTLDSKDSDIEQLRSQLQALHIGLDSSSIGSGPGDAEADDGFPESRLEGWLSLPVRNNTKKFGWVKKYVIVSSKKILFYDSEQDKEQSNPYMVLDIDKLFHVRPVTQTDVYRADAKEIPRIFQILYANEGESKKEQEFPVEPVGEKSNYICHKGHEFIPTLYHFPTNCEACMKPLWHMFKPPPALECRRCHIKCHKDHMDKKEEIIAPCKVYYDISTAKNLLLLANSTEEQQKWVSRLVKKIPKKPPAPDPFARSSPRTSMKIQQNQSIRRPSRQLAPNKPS
Sequence of RAC-alpha serine/threonine-protein kinase (P31749 whole entry): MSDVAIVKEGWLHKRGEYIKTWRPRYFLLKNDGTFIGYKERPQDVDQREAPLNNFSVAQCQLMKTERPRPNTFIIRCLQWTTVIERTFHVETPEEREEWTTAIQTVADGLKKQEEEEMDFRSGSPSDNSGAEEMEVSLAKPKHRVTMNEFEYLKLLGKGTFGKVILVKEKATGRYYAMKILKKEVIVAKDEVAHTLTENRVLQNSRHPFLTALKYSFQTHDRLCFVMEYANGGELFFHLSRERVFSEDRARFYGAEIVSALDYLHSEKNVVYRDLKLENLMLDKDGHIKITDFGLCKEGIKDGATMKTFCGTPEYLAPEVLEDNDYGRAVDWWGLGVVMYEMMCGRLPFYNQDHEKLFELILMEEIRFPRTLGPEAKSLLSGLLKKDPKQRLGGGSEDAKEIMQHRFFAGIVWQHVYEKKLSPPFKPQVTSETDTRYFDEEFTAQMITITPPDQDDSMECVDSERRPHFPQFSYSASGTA

Row | Compound | Vd [1] | half-life [2] | inhibition at 10 µM [3] | inhibition at 10 µM [4] | clearance [5] | AUC [6] | inhibition at 10 µM [7] | inhibition at 10 µM [8] | IC50 [9] | IC50 [10] | IC50 [11] | Cmax [12]
1 | O=C(Nc1ccc(-c2ccncc2)cc1)C1COc2ccccc2O1 (stereo unspecified) | 5.3 L/kg | 0.5 h | 64% | 51% | 161 mL/min/kg | 0.3 µM·h | 33% | 23% |  |  |  | 
2 | CN(C)CCOc1cc(-c2cn[nH]c2)ccc1N |  |  |  |  |  |  |  |  | 920 nM |  |  | 
3 | CC(=O)Nc1ccc(-c2cn[nH]c2)cc1OCCN(C)C |  |  |  |  |  |  |  |  | 760 nM |  |  | 
4 | O=C(Nc1nc(-c2ccncc2)cs1)C1COc2ccccc2O1 (stereo unspecified) | 3.7 L/kg | 0.4 h | 96% | 80% | 181 mL/min/kg | 0.3 µM·h | 94% | 90% | 7.2 nM | 137 nM | > 20000 nM | 
5 | COc1cc(-c2cn[nH]c2)ccc1NC(=O)C1COc2ccccc2O1 (stereo unspecified) | 1 L/kg | 2.6 h | 93% | 36% | 11 mL/min/kg | 4.3 µM·h | 79% | 92% | 3.3 nM |  | 8820 nM | 120 nM
6 | O=C(Nc1ccc(-c2c[nH]cn2)cc1)C1COc2ccccc2O1 (stereo unspecified) | 1.9 L/kg | 2.2 h | 87% | 1% | 18 mL/min/kg | 2.8 µM·h | 40% | 20% |  |  |  | 20 nM
